This experiment relates to human breast MDA-MB-231•X1 cells. Description: Tumor xenograft study. It counts as in vivo, mouse. As to conditions: MDA-MB-231•X1 xenograft in female nude mice, iv Qwk. On the procedure: All procedures involving animals were performed in accordance with the guidelines of the Genentech Institutional Animal Care and Use Committee. Cancer cells such as Human breast MDA-MB-231, colorectal, Colo205, or NSCLC, Calu6 cancer cells were obtained from American Type Culture Collection (Manassas, Va.). Cells were resuspended in HBSS (Colo205) or the cell suspension was mixed 1:1 with Matrigel (BD Biosciences; MDA-MB-231, Calu6). The cells (1.5×10^7 for MDA-MB-231; 5.0×10^7 for Colo205, Calu6) were then implanted subcutaneously into the right flank of female nude mice (Charles River Laboratories, Hollister, Calif.) aged 6-8 weeks. Tumor volumes were calculated using the mean diameter measured with vernier calipers using the formula v=0.5×a×b^2, were a and b are the largest and smallest perpendicular tumor diameters, respectively. Ten mice with the appropriate mean tumor volume were assigned randomly to each of six groups. The mean tumor volume±the standard error of the mean (SEM) for all six groups was 168±3 mm^3 at the initiation of treatment (Day 0). The mice were observed on each day of the study, and tumor volumes and body weights were measured twice each week.

Compound `CN[C@@H](C)C(=O)N[C@H](C(=O)N1CCCC1C(=O)Nc1snnc1-c1ccccc1)C1CCCCC1` (some centres unmarked) [III] had an MED of 18.6 mg/kg.

The compound `CN[C@@H](C)C(=O)N[C@H](C(=O)N1CCC[C@H]1C(=O)Nc1sc(-c2ncco2)nc1-c1ccccc1)C1CCCCC1` [Ia, (S)-1-[(S)-2-cyclohexyl-2-((S)-2-methylamino-propionylamino)-acetyl]-pyrrolidine-2-carboxylic acid (2-oxazol-2-yl-4-phenyl-thiazol-5-yl)-amide] registered an MED of 3.4 mg/kg.

For the origin of these results see patent US8716236B2, “Inhibitors of IAP” (Genentech, Inc., priority 2012, dated 2014).
